From patent US11938113B2, “Epigallocathechin gallate solution” (ASSISTANCE PUBLIQUE—HOPITAUX DE PARIS, priority 2017, dated 2024)
Several values for one entry are separate records, joined by “and”; a condition that tells them apart may be missing. Equal entries are not always repeated. Where two headings read alike, the source gives them in different places.

Experiments:
[1] = Solubility of EGCG in sucrose solution versus EGCG alone in water; assay type: physicochemical; conditions: after 4 hours of dissolution
Description: The solubility of EGCG in a solution containing 10% by weight of sucrose is compared to that of EGCG alone in water.

[2] = Stress stability testing (thermal gradient 25 to 135° C., HPLC of residue); assay type: physicochemical; conditions: heating 25 to 135° C. at 5° C. per min
Protocol: Both solutions were subjected to progressive heating ranging from 25 to 135° C. at a rate of 5° C. per minute. At end of heating, the residues formed from each solution are illustrated in FIG. 2A and are analyzed by high performance liquid chromatography.
1 mL of the reference standard suspension and a formulation of the invention disclosed Table 1 before were subjected to a thermal gradient program ranging from 25 to 135° C. at a rate of 5° C. per min. At the end of this exposure, part of each of the residues formed was deposited on a glass slide and the remaining part analyzed by high performance liquid chromatography.

[3] = at normal condition, in water; cited from earlier work
[4] = after 1-h ultra violet irradiation; cited from earlier work

- solubility of EGCG [1]: ≤ 5000 µg/mL
- appearance of residue at the end of heating [2]: black
- chromatographic analysis of residue (EGCG remaining) ([2]; HPLC): practically no more EGCG
SMILES: O=C(O[C@@H]1Cc2c(O)cc(O)cc2O[C@@H]1c1cc(O)c(O)c(O)c1)c1cc(O)c(O)c(O)c1 [EGCG, Epigallocatechin gallate]
- solubility of EGCG [3]: 4.6 g/L and 10 mM
- decomposition of EGCG [4]: 70%
